One data set deals with JAK1 kinase (Homo sapiens (Human), UniProt P23458). As to the kind of experiment: Assay for inhibiting JAK1 kinase (in vitro kinase assay, HRP anti-phosphotyrosine antibody/TMB absorbance). Type of data set: biochemical. The note with it: 20 μM ATP, 50 minutes at room temperature; read-out: IC50 (JAK1/Bio). As for the experimental part: In vitro activity of compounds of the present invention for inhibiting JAK1 kinase was determined by the following method.
IC50 values of test compounds was calculated from the data of the test compounds in inhibiting the activity of JAK1 kinase at different concentrations.

The next data set addresses JAK2 kinase (Homo sapiens (Human), UniProt O60674). Description: Assay for inhibiting JAK2 kinase (in vitro kinase assay, HRP anti-phosphotyrosine antibody/TMB absorbance). Type of data set: biochemical. Conditions: 20 μM ATP, 50 minutes at room temperature; read-out: IC50 (JAK2/Bio). As to the method: In vitro activity of compounds of the present invention for inhibiting JAK2 kinase was determined by the following method.

Data set [1] can be described thus: Pharmacokinetics assay in rats, intragastric administration, plasma by LC/MS/MS. It counts as in vivo, Sprague-Dawley (SD) rats. Conditions: both sexes, Sprague-Dawley, rat, plasma, po, SD rats, 10 mg/kg; for Vd/F: read-out: Apparent Distribution Volume Vz/F; for AUC: read-out: Area Under Curve AUC; for CL/F: read-out: Clearance CL/F; for half-life: read-out: Half-Life t½ (converted); for MRT: read-out: Mean Residence Time MRT; for Cmax: read-out: Plasma Conc. Cmax. As to the method: Rats were used as test animals. […] The pharmacokinetic behavior of the compounds of the present invention was studied and evaluated in rats.
56 Healthy adult Sprague-Dawley (SD) rats, half male and half female, purchased from SINO-BRITSH SIPPR/BK LAB.
The appropriate amount of test compounds were weighed and mixed with 1.0 mL of dimethyl sulfoxide to prepare a 1.0 mg/mL suspension.
After an overnight fast, SD rats were administered intragastrically at a dose of 10.0 mg/kg and an administration volume of 10 mL/kg.
The plasma samples were stored at −20° C. The rats were fed 2 hours after administration.
Content determination of the test compounds in rat plasma after intragastrically administering at different concentrations: 50 μL of rat plasmas taken at various time points after administration were mixed with 50 μL of internal standard solution and 100 μL of methanol and mixed for 3 minutes by a vortexer. The mixture was centrifuged for 10 minutes at 13,500 rpm. 10 μL of the supernatant was taken from the plasma sample and analyzed by LC-MS/MS.
Pharmacokinetic Parameters of the compounds of the present invention were shown as follows: […]

The next data set deals with JAK3 kinase (Homo sapiens (Human), UniProt P52333). As to the kind of experiment: Assay for inhibiting JAK3 kinase (in vitro kinase assay, HRP anti-phosphotyrosine antibody/TMB absorbance). The note with it: 50 minutes at room temperature; read-out: IC50 (JAK3/Bio). It counts as biochemical. As to the method: In vitro activity of compounds of the present invention for inhibiting JAK3 kinase was determined by the following method.
JAK3 kinase, sequence (P52333 whole entry): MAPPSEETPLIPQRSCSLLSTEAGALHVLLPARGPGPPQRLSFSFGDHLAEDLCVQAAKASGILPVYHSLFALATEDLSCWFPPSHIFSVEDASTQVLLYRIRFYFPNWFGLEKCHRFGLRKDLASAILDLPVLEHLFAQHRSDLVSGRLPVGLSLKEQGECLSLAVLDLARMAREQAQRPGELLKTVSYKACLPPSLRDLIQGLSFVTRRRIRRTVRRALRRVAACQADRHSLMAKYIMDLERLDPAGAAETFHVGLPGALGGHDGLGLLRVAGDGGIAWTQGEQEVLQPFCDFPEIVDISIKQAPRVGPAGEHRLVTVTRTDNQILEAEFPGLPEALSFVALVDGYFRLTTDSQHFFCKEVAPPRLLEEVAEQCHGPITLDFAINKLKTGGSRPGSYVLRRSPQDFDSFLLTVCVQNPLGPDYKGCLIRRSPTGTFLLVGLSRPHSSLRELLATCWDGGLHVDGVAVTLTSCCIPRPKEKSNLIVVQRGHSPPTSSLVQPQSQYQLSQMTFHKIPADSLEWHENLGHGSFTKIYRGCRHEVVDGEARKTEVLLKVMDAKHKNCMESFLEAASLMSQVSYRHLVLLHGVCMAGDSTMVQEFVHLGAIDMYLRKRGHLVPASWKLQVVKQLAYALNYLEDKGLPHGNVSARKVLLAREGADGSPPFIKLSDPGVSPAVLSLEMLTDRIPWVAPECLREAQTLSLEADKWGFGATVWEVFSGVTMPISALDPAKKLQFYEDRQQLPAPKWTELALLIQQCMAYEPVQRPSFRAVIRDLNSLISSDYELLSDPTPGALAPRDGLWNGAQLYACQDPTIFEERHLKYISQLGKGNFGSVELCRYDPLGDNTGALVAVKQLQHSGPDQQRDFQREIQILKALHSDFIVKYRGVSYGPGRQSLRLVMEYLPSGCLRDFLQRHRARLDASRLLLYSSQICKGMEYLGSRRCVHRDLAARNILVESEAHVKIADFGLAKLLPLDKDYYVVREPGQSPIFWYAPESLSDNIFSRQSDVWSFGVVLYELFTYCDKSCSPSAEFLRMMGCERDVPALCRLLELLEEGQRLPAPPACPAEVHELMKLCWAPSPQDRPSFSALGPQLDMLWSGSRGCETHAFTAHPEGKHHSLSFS

JAK1 kinase, sequence (P23458 whole entry): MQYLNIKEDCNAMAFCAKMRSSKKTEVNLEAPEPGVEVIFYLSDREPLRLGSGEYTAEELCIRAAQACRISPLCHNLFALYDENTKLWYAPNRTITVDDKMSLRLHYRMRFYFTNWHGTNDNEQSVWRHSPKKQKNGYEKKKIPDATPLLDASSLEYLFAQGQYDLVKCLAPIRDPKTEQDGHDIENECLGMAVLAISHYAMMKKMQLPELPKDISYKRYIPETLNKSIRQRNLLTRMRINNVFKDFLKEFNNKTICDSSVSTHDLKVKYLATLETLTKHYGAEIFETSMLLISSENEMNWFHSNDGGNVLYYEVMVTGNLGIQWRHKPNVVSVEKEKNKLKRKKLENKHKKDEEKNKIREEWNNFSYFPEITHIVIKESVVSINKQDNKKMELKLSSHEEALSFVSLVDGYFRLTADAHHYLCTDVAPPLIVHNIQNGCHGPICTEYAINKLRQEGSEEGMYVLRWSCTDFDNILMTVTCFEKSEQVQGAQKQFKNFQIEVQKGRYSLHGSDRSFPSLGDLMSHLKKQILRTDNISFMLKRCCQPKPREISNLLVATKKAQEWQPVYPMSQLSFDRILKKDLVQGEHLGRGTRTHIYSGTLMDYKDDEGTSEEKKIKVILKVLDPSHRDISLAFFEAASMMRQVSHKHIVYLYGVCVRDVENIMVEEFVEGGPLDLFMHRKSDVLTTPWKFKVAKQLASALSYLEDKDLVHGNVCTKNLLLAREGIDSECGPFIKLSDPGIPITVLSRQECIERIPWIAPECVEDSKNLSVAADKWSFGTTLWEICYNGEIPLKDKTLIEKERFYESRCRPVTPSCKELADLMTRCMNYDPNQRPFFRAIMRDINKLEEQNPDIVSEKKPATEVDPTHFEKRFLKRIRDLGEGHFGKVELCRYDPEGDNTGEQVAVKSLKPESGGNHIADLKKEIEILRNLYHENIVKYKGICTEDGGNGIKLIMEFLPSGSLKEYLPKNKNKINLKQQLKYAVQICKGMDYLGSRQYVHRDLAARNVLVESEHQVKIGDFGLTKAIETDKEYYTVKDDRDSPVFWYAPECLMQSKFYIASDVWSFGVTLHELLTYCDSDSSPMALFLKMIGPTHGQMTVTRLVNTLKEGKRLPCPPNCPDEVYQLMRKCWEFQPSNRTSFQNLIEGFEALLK
JAK2 kinase, sequence (O60674 whole entry): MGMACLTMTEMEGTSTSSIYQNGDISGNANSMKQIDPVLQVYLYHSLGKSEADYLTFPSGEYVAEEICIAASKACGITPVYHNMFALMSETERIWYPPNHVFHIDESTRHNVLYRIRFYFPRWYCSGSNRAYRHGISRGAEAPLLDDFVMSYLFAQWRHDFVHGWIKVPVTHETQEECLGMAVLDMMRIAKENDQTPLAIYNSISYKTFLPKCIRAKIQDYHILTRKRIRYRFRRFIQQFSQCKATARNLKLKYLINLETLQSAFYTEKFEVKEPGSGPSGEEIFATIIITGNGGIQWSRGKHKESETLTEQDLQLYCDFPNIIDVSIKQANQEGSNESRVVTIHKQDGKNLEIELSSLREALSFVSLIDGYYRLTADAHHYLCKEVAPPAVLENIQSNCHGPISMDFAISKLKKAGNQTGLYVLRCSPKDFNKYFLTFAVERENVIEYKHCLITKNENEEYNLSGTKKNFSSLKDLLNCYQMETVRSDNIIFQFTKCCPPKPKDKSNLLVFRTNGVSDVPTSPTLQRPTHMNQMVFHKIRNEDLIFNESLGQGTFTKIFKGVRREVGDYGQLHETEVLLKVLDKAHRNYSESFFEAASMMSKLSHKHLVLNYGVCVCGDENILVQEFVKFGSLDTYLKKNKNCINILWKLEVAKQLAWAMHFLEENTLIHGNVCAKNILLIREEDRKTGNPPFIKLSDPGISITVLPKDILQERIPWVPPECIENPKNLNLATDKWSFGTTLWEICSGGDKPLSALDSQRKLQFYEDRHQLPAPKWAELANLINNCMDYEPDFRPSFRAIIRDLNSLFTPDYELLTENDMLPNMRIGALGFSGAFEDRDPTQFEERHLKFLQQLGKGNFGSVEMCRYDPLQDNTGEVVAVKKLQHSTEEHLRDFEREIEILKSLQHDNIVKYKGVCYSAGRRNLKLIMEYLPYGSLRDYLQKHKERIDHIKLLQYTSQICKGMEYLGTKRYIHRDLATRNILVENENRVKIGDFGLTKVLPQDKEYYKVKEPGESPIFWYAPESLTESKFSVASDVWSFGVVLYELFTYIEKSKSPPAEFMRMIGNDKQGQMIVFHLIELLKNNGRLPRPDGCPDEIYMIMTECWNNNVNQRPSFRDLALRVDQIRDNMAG

Take `CC(=O)N1CC[C@H]2CC(N(C)c3ncnc4[nH]ccc34)C[C@H]2C1` (stereo partly drawn) [Example 35, 1-((4aS,7aR)-6-(Methyl(7H-pyrrolo[2,3-d]pyrimidin-4-yl)amino)hexahydro-1H-cyclopenta[c]pyridin-2(3H,4H,4aH,5H,6H,7H,7aH)-yl)ethanone]: at JAK1 kinase, the IC50 stood at 0.003 µM. At JAK2 kinase, the IC50 stood at 0.016 µM. For the same compound, in data set [1], the Vd/F was 10.4 ± 2.04 L/kg; the AUC (in general, the area under the concentration-time curve, a measure of exposure) was found to be 3080 ± 1340 ng·h/mL; the CL/F is 63.3 ± 28 mL/min/kg; the half-life (in general, the time in which the quantity being followed falls by half) is 2.11 ± 0.67 h. Besides, in data set [1], the MRT (in general, the average time that molecules of a dose stay in the body) worked out at 3.02 ± 1.33 h and the Cmax – broadly, the peak of the concentration-time curve – was determined as 1220 ± 244 ng/mL.

For `CN(c1ncnc2[nH]ccc12)[C@H]1C[C@@H]2CN(C(=O)CCC#N)C[C@@H]2C1` [Example 22, 4-((3aR,5S,6aS)-5-(Methyl(7H-pyrrolo[2,3-d]pyrimidin-4-yl)amino)hexahydrocyclopenta[c]pyrrol-2(1H)-yl)-4-oxobutanenitrile], the IC50 at JAK1 kinase stood at 0.016 µM. Further, at JAK2 kinase, the IC50 was determined as 0.054 µM. Further, in data set [1], the Vd/F was found to be 9.39 ± 8.06 L/kg, the AUC is 6990 ± 4560 ng·h/mL, the CL/F is 34.6 ± 22.7 mL/min/kg and the half-life is 2.87 ± 0.7 h. In data set [1], the MRT worked out at 2.6 ± 0.1 h and the Cmax is 2960 ± 2110 ng/mL.

Regarding `CN(c1ncnc2[nH]ccc12)[C@H]1C[C@@H]2CN(C(=O)Nc3nc(C4CC4)ns3)C[C@@H]2C1` [Example 49, (3aR,5S,6aS)—N-(3-Cyclopropyl-1,2,4-thiadiazol-5-yl)-5-(methyl(7H-pyrrolo[2,3-d]pyrimidin-4-yl)amino)hexahydrocyclopenta[c]pyrrole-2(1H)-carboxamide], the IC50 at JAK1 kinase is 0.0002 µM. Further, at JAK2 kinase, the IC50 was determined as 0.014 µM. For the same compound, in data set [1], the Vd/F stood at 18.1 ± 20.7 L/kg, the AUC came to 6000 ± 4740 ng·h/mL, the CL/F was 46.1 ± 35.6 mL/min/kg and the Cmax turned out to be 1060 ± 677 ng/mL.

As to `CN(c1ncnc2[nH]c(F)cc12)[C@H]1C[C@@H]2CN(C(=O)CO)C[C@@H]2C1` [Example 129, 1-((3aR,5S,6aS)-5-((6-fluoro-7H-pyrrolo[2,3-d]pyrimidin-4-yl)(methyl)amino)hexahydrocyclopenta[c]pyrrol-2(1H)-yl)-2-hydroxyethanone], the figures for the IC50 at JAK3 kinase and at JAK1 kinase were 0.017 µM and 0.036 µM, respectively.

As for `CN(c1ncnc2[nH]ccc12)[C@H]1C[C@@H]2CN(C(=O)C(O)C(F)(F)F)C[C@@H]2C1` (stereo partly drawn) [Example 97, 3,3,3-trifluoro-2-hydroxy-1-((3aR,5S,6aS)-5-(methyl(7H-pyrrolo[2,3-d]pyrimidin-4-yl)amino)hexahydrocyclopenta[c]pyrrol-2(1H)-yl)propan-1-one], the IC50 on JAK3 kinase was 0.11 µM.

Regarding `CN(c1ncnc2[nH]cc(F)c12)[C@H]1C[C@@H]2CN(C(=O)CO)C[C@@H]2C1` [Example 128, 1-((3aR,5S,6aS)-5-((5-fluoro-7H-pyrrolo[2,3-d]pyrimidin-4-yl)(methyl)amino)hexahydrocyclopenta[c]pyrrol-2(1H)-yl)-2-hydroxyethanone], the IC50 on JAK3 kinase was 0.004 µM. Also, at JAK1 kinase, the IC50 was determined as 0.013 µM. In data set [1], the Vd/F came out at 11.4 ± 4.15 L/kg, the AUC is 2320 ± 1030 ng·h/mL, the CL/F came to 84.3 ± 37.8 mL/min/kg and the half-life is 1.62 ± 0.28 h. Besides, the Cmax in data set [1] was 1420 ± 150 ng/mL.

For the compound `CN(c1ncnc2[nH]ccc12)[C@H]1C[C@@H]2CN(CC(F)(F)F)C[C@@H]2C1` [Example 56, N-methyl-N-((3aR,5S,6aS)-2-(2,2,2-trifluoroethyl)octahydrocyclopenta[c]pyrrol-5-yl)-7H-pyrrolo[2,3-d]pyrimidin-4-amine], the IC50 at JAK3 kinase was 0.075 µM; at JAK1 kinase it was 0.011 µM; on JAK2 kinase, 0.032 µM.

For `CC(C)C(=O)N1CC[C@H]2C[C@@H](N(C)c3ncnc4[nH]ccc34)C[C@H]2C1` [Example 151, 2-methyl-1-((4aS,6R,7aR)-6-(methyl(7H-pyrrolo[2,3-d]pyrimidin-4-yl)amino)hexahydro-1H-cyclopenta[c]pyridin-2(3H)-yl)propan-1-one], the IC50 worked out at 0.203 µM at JAK3 kinase, 0.106 µM at JAK1 kinase and 0.127 µM at JAK2 kinase.

On to `CN(C[C@H]1[C@@H]2CN(C(=O)OC(C)(C)C)C[C@@H]21)c1ncnc2[nH]ccc12` [Example 133, (1R,5S,6S)-tert-butyl 6-((methyl(7H-pyrrolo[2,3-d]pyrimidin-4-yl)amino)methyl)-3-azabicyclo[3.1.0]hexane-3-carboxylate], for which, at JAK3 kinase, the IC50 was 0.09 µM.

On to `CN(c1ncnc2[nH]ccc12)[C@@H]1C[C@@H]2CN(CC#N)C[C@@H]2C1` [Example 69, 2-((3aR,5R,6aS)-5-(methyl(7H-pyrrolo[2,3-d]pyrimidin-4-yl)amino)hexahydrocyclopenta[c]pyrrol-2(1H)-yl)acetonitrile], for which the IC50 at JAK3 kinase was 0.02 µM; on JAK1 kinase, 0.005 µM; at JAK2 kinase, 0.004 µM.

Take `COc1nsc(NC(=O)N2C[C@H]3C[C@H](N(C)c4ncnc5[nH]ccc45)C[C@H]3C2)n1` [Example 34, (3aR,5S,6aS)—N-(3-Methoxy-1,2,4-thiadiazol-5-yl)-5-(methyl(7H-pyrrolo[2,3-d]pyrimidin-4-yl)amino)hexahydrocyclopenta[c]pyrrole-2(1H)-carboxamide]: the IC50 on JAK1 kinase was 0.002 µM. Also, the IC50 at JAK2 kinase was 0.005 µM. Also, in data set [1], the Vd/F amounted to 2.76 ± 1.53 L/kg, the AUC was determined as 14900 ± 10400 ng·h/mL, the CL/F is 18.3 ± 14.2 mL/min/kg and the half-life is 2.1 ± 0.73 h. Also, in data set [1], the MRT was determined as 3.81 ± 0.82 h and the Cmax was 2670 ± 1450 ng/mL.

In the case of `CN(c1ncnc2[nH]ccc12)[C@H]1C[C@@H]2CN(C(=O)OCC(F)(F)F)C[C@@H]2C1` [Example 111, (3aR,5S,6aS)-2,2,2-trifluoroethyl 5-(methyl(7H-pyrrolo[2,3-d]pyrimidin-4-yl)amino)hexahydrocyclopenta[c]pyrrole-2(1H)-carboxylate], the IC50 stood at 0.101 µM at JAK3 kinase, 0.096 µM at JAK1 kinase and 0.146 µM at JAK2 kinase.

On to `CCc1nsc(NC(=O)N2C[C@H]3C[C@H](N(C)c4ncnc5[nH]ccc45)C[C@H]3C2)n1` [Example 48, (3aR,5S,6aS)—N-(3-Ethyl-1,2,4-thiadiazol-5-yl)-5-(methyl(7H-pyrrolo[2,3-d]pyrimidin-4-yl)amino)hexahydrocyclopenta[c]pyrrole-2(1H)-carboxamide], for which the IC50 on JAK1 kinase was 0.001 µM. Besides, at JAK2 kinase, the IC50 is 0.031 µM. For the same compound, in data set [1], the Vd/F was 7.2 ± 8.11 L/kg, the AUC stood at 9620 ± 7910 ng·h/mL, the CL/F was determined as 31.9 ± 26.9 mL/min/kg and the half-life was 2.43 ± 0.75 h. In data set [1], the MRT was determined as 3.4 ± 0.91 h and the Cmax came to 2070 ± 1470 ng/mL.

Take `CN(c1ncnc2[nH]ccc12)[C@H]1C[C@@H]2CN(C(=O)Nc3nc(CO)ns3)C[C@@H]2C1` [Example 50, (3aR,5S,6aS)—N-(3-(Hydroxymethyl)-1,2,4-thiadiazol-5-yl)-5-(methyl(7H-pyrrolo[2,3-d]pyrimidin-4-yl)amino)hexahydrocyclopenta[c]pyrrole-2(1H)-carboxamide]: the IC50 on JAK3 kinase came to 0.201 µM; at JAK1 kinase it was 0.0005 µM; on JAK2 kinase it was 0.007 µM.

For `COc1nsc(NC(=O)N2C[C@H]3C[C@@H](N(C)c4ncnc5[nH]ccc45)C[C@H]3C2)n1` [Example 74, (3aR,5R,6aS)-N-(3-methoxy-1,2,4-thiadiazol-5-yl)-5-(methyl(7H-pyrrolo[2,3-d]pyrimidin-4-yl)amino)hexahydrocyclopenta[c]pyrrole-2(1H)-carboxamide], the IC50 on JAK1 kinase was 0.004 µM; on JAK2 kinase, 0.056 µM.

For `COC(=O)N1CC[C@H]2CC(N(C)c3ncnc4[nH]ccc34)C[C@H]2C1` (stereo partly drawn) [Example 36, (4aS,7aR)-Methyl 6-(methyl(7H-pyrrolo[2,3-d]pyrimidin-4-yl)amino) hexahydro-1H-cyclopenta[c]pyridine-2(3H)-carboxylate], the IC50 at JAK1 kinase stood at 0.025 µM; at JAK2 kinase it was 0.075 µM.

For `CN(c1ncnc2[nH]ccc12)[C@@H]1C[C@@H]2CN(C(=O)Nc3nncs3)C[C@@H]2C1` [Example 73, (3aR,5R,6aS)-5-(methyl(7H-pyrrolo[2,3-d]pyrimidin-4-yl)amino)-N-(1,3,4-thiadiazol-2-yl)hexahydrocyclopenta[c]pyrrole-2(1H)-carboxamide], the IC50 at JAK1 kinase was found to be 0.075 µM; on JAK2 kinase it was 0.047 µM.

For the origin of these results see US9527851B2, “Pyrrole six-membered heteroaryl ring derivative, preparation method thereof, and medicinal uses thereof” (Jiangsu Hengrui Medicine Co., Ltd., priority 2011, dated 2016).
